Active and inactive are the calls of the source. No cut-off for these calls is given here.
Assays:
[1] = system: Plasmodium yoelii nigeriensis; assay: Antimalarial activity against blood stage multidrug-resistant Plasmodium yoelii nigeriensis infected swiss mouse assessed as protection […] at 24 mg/kg, po administered once daily for 3 days measured after 28 days by microscopy; format: functional, organism-based
[2] = system: Plasmodium yoelii nigeriensis; assay: Antimalarial activity against blood stage multidrug-resistant Plasmodium yoelii nigeriensis infected swiss mouse assessed as protection […] at 24 mg/kg, po administered once daily for 3 days measured on day 4 and subsequently twice a week up to 28 days by microscopy; format: functional
[3] = system: Plasmodium yoelii nigeriensis; assay: Antimalarial activity against blood stage multidrug-resistant Plasmodium yoelii nigeriensis infected swiss mouse assessed as suppression of parasitaemia at 24 mg/kg, po administered once daily for 3 days measured on day 4 by microscopic analysis relative to control; format: functional
[4] = system: Plasmodium yoelii nigeriensis; assay: Antimalarial activity against blood stage multidrug-resistant Plasmodium yoelii nigeriensis infected swiss mouse assessed as protection against Plasmodium yoelii nigeriensis infection at 12 mg/kg, po administered once daily for 3 days measured after 28 days by microscopy; format: functional, organism-based
[5] = Lipophilicity, logP of compound; format: physicochemical; conditions: octanol/water
[6] = system: Plasmodium yoelii nigeriensis; assay: (§1) Antimalarial activity against blood stage multidrug-resistant Plasmodium yoelii nigeriensis infected swiss mouse assessed as protection against Plasmodium yoelii nigeriensis infection at 48 mg/kg, po administered once daily for 3 days measured on day 4 and subsequently twice a week up to 28 days by microscopy; format: functional
[7] = system: Plasmodium yoelii nigeriensis; assay: Antimalarial activity against blood stage multidrug-resistant Plasmodium yoelii nigeriensis infected swiss mouse assessed as suppression of parasitaemia at 12 mg/kg, po administered once daily for 3 days measured on day 4 by microscopic analysis relative to control; format: functional
[8] = system: Plasmodium yoelii nigeriensis; assay: as §1, with “12” for “48”; format: functional
[9] = system: Plasmodium yoelii nigeriensis; assay: Antimalarial activity against blood stage multidrug-resistant Plasmodium yoelii nigeriensis infected swiss mouse assessed as suppression of parasitaemia at 48 mg/kg, po administered once daily for 3 days measured on day 4 by microscopic analysis relative to control; format: functional
[10] = system: Plasmodium yoelii nigeriensis; assay: Antimalarial activity against blood stage multidrug-resistant Plasmodium yoelii nigeriensis infected swiss mouse assessed as protection against […] infection at 6 mg/kg, po administered once daily for 3 days measured on day 4 and subsequently twice a week up to 28 days by microscopy; format: functional, organism-based
[11] = system: Plasmodium yoelii nigeriensis; assay: Antimalarial activity against blood stage multidrug-resistant Plasmodium yoelii nigeriensis infected swiss mouse assessed as suppression of parasitaemia at 6 mg/kg, po administered once daily for 3 days measured on day 4 by microscopic analysis relative to control; format: functional
[12] = system: Plasmodium yoelii nigeriensis; assay: Antimalarial activity against blood stage multidrug-resistant Plasmodium yoelii nigeriensis infected swiss mouse assessed as protection against […] infection at 6 mg/kg, po administered once daily for 3 days measured after 28 days by microscopy; format: functional, organism-based

| SMILES | Activity [1] | Activity [2] | inhibition in vivo at 24 mg/kg [3] [%] | Activity [4] | logP [5] | Activity [6] [%] | inhibition in vivo at 12 mg/kg [7] [%] | Activity [8] | inhibition in vivo at 48 mg/kg [9] [%] | Activity [10] | inhibition in vivo at 6 mg/kg [11] [%] | Activity [12] |
| --- | --- | --- | --- | --- | --- | --- | --- | --- | --- | --- | --- | --- |
| C[C@H]1[C@H](OC(=O)CC(c2ccc(Cl)cc2)c2ccc(Cl)cc2)O[C@@H]2O[C@@]3(C)CC[C@H]4[C@H](C)CC[C@@H]1[C@@]24OO3 | inactive | 100% | 100 | inactive | 8.27 | 100 | 96 | inactive | 100 | – | – | – |
| C[C@H]1[C@H](OC(=O)CCc2ccccc2)O[C@@H]2O[C@@]3(C)CC[C@H]4[C@H](C)CC[C@@H]1[C@@]24OO3 | – | – | 100 | – | 5.63 | 100 | – | – | 100 | – | – | – |
| COc1ccc(C(CC(=O)O[C@@H]2O[C@@H]3O[C@@]4(C)CC[C@H]5[C@H](C)CC[C@@H]([C@H]2C)[C@@]35OO4)c2ccc(OC)cc2)cc1 | – | 100% | 100 | – | 6.9 | 100 | 100 | 80% | 100 | inactive | 100 | inactive |
| C[C@H]1[C@H](OC(=O)C(c2ccccc2)c2ccccc2)O[C@@H]2O[C@@]3(C)CC[C@H]4[C@H](C)CC[C@@H]1[C@@]24OO3 | – | 100% | 100 | – | 6.97 | 100 | 100 | 100% | 100 | inactive | 100 | inactive |
| C[C@H]1[C@H](OC(=O)CC(c2ccccc2)c2ccccc2)O[C@@H]2O[C@@]3(C)CC[C@H]4[C@H](C)CC[C@@H]1[C@@]24OO3 | inactive | 100% | 100 | inactive | 7.15 | 100 | 100 | inactive | 100 | – | – | – |
| C[C@H]1[C@H](OC(=O)CC(c2ccc(F)cc2)c2ccc(F)cc2)O[C@@H]2O[C@@]3(C)CC[C@H]4[C@H](C)CC[C@@H]1[C@@]24OO3 | – | 100% | 100 | – | 7.47 | 100 | 100 | 80% | 100 | inactive | 100 | inactive |
| CCCCCCC(=O)O[C@@H]1O[C@@H]2O[C@@]3(C)CC[C@H]4[C@H](C)CC[C@@H]([C@H]1C)[C@@]24OO3 | – | – | 100 | – | 5.7 | 100 | – | – | 100 | – | – | – |
| C[C@H]1[C@H](OC(=O)CC(c2ccc(Br)cc2)c2ccc(Br)cc2)O[C@@H]2O[C@@]3(C)CC[C@H]4[C@H](C)CC[C@@H]1[C@@]24OO3 | inactive | 100% | 100 | inactive | 8.81 | 100 | 100 | inactive | 100 | – | – | – |
| CC(=O)O[C@@H]1O[C@@H]2O[C@@]3(C)CC[C@H]4[C@H](C)CC[C@@H]([C@H]1C)[C@@]24OO3 | – | inactive | 99 | – | 3.37 | – | – | – | 100 | – | – | – |
| CCCCCC(=O)O[C@@H]1O[C@@H]2O[C@@]3(C)CC[C@H]4[C@H](C)CC[C@@H]([C@H]1C)[C@@]24OO3 | – | inactive | 100 | – | 5.28 | 100 | – | – | 100 | – | – | – |

From ChEMBL document CHEMBL3774322, “New orally active diphenylmethyl-based ester analogues of dihydroartemisinin: Synthesis and antimalarial assessment against multidrug-resistant Plasmodium yoelii nigeriensis in mice” (Bioorg Med Chem Lett, 2016)
